Biological target: T1, OST6 complex (Saccharomyces cerevisiae, UniProt P39007)
T1 construct: were purified separately from strains expressing only one type of complex; made in house; host or cells: Saccharomyces cerevisiae, BY4742-derived strain ost3::LEU2MX6 OST4-1D4::kanMX6 YEp352-OST6
Experiment: In vitro glycosylation assay, acceptor peptides, OST6 complex
Assay type: biochemical
Conditions: for OST6 complex activity compared with OST3 complex, in words: synthetic chitobiose-containing LLO, TAMRA-YANATS with 50 μM LLO C20 (Fig. 5A), TAMRA-DANYTK data not shown
Method: Figure 5 OST3 complex turns over both glycosylation substrates faster than the OST6 complex, but with similar substrate affinities.A, enzyme activity of OST3 and OST6 complexes. Reactions were performed with 25 μM peptide TAMRA-YANATS, 50 μM LLO C20, and varying concentrations of purified OST3 complex (blue) or OST6 complex (red). Glycopeptide product was measured by UPLC and initial rates of reaction were determined by linear regression of the initial phase of the reaction. Turnover rates were determined by linear regression of the initial rates of reaction measured across the enzyme concentrations of 0.01–0.1 μM for OST3 complex and 0.1–0.5 μM for OST6 complex. Error bars indicate standard deviations from the mean of three reaction sets (n = 3). B, synthetic LLO preferences of OST3 and OST6 complexes. Reactions were performed with 25 μM peptide TAMRA-YANATS, 50 μM of the indicated LLO (C15, C20, or C25) and 0.09 μM of purified OST3 complex (blue) or 0.5 μM OST6 complex (red). Turnover rates were determined by linear regression of the initial phase of the reaction and accounting for the enzyme concentration in the reaction. Error bars indicate standard deviations from the mean of three reactions (n = 3). C, quantification of kinetic parameters for the synthetic LLO C20. Reactions were performed with 25 μM peptide TAMRA-YANATS, varying concentrations of synthetic LLO C20, and either 0.1 μM purified OST3 complex (blue) or 0.5 μM OST6 complex (red). Turnover rates were determined by linear regression of the initial phase of the reaction and accounting for the enzyme concentration in the reaction. The mean of three reactions is shown and the data were fitted by nonlinear regression according to the Michaelis–Menten formula (R^2 = 0.9685 (OST3 complex), 0.9720 (OST6 complex)) using Prism. Error bars indicate standard deviations from the mean (n = 3). Asterisk indicates a data point not included in the Michaelis–Menten fitting, due to poor fitting. D, quantification of kinetic parameters for the peptide TAMRA-YANATS. Reactions were performed with 100 μM synthetic LLO C20, varying concentrations of peptide TAMRA-YANATS, and 0.1 μM purified OST3 complex (blue) or OST6 complex (red). Turnover rates were determined by linear regression of the initial phase of the reaction and accounting for the enzyme concentration in the reaction. The mean of three reactions is shown and the data were fitted by nonlinear regression according to the Michaelis–Menten formula (R^2 = 0.9794 (OST3 complex), 0.9214 (OST6 complex)) using Prism. Error bars indicate standard deviations from the mean (n = 3). Asterisk indicates data points not included in the Michaelis–Menten fitting, due to poor fitting. E, SDS-PAGE (14 % acrylamide) silver staining of 0.2 μg purified OST3 complex, OST6 complex, and OST3 complex purified from alg6Δ cells. Multiple bands of Ost1p and Wbp1p represent the fully and hypoglycosylated forms of the proteins. Ost4p is tagged with the 1D4 epitope for purification. F, enzyme activity of OST complexes. Reactions were performed with 100 μM peptide TAMRA-YANATS, 50 μM LLO C20, and varying concentrations from 0.1 to 0.3 μM of purified OST3 complex, OST6 complex, or OST3 complex purified from alg6Δ cells. Turnover rates were determined as in A by linear regression of the initial rates of reaction across the enzyme concentrations of 0.1–0.3 μM for each OST. Error bars indicate the standard deviation from the mean turnover rate of three reaction sets (n = 3).
TAMRA-labeled peptides with 5-TAMRA at the N-terminus and an amide group at the C-terminus were synthesized by WatsonBio Sciences. Unlabeled peptides (Table S1) were synthesized by Genscript Corp. and were designed so that the asparagine of the glycosylation sequon was in the middle (except for Peptide 8). Lyophilized peptides were dissolved in dimethyl sulfoxide (DMSO), unless specified otherwise, to a 3 mM stock solution and further diluted in ddH2O for reactions. […]

Row | Substance | OST6 complex activity compared with OST3 complex, in words | kcat/KM (0.1 μM OST6 complex, 100 μM LLO C20) [min^-1 μM^−s1] | kcat (apparent) (0.1 μM OST6 complex, 100 μM LLO C20, varying peptide, 30 °C, n = 3) [s⁻¹] | Km (0.1 μM OST6 complex, 100 μM LLO C20, varying peptide, 30 °C, n = 3, read-out: KM (apparent)) [µM] | affinity for the peptide substrate, OST6 compared with OST3 complex, in words (100 μM LLO C20) | peptide turnover rate of OST6 complex compared with OST3 complex (100 μM LLO C20, TAMRA-YANATS varied)
1 | TAMRA-DANYTK-NH2 [fluorescently labeled hexapeptide TAMRA-DANYTK-NH2 as the acceptor peptide, reference compound] | reduced | – | – | – | – | –
2 | TAMRA-YANATS [shorter version of Peptide 5 of only six amino acid residues (TAMRA-YANATS)] | drastically reduced | 0.05 | 0.0383 ± 0.0033 | 44.8 ± 5.7 | similar | reduced six times
